Assay results published in patent US20240384268A1, “Oligonucleotides” (Hudson Institute of Medical Research, priority 2021, published 2024).
In the oligonucleotide strings, read from the 5' end, every base follows the letter of its sugar. An asterisk marks phosphorothioate; unmarked linkages are phosphodiester. Other units and linkages are bracketed, terminal groups are in braces. A string of capitals states the bases alone. d = 2'-deoxy (DNA); m = 2'-O-methyl

Biological target: T1, human TLR7 (Homo sapiens, UniProt Q9NYK1)
T1 construct: HA; host or cells: 293XL-hTLR7-HA (HEK293)
T1 sequence (Q9NYK1 27-1049): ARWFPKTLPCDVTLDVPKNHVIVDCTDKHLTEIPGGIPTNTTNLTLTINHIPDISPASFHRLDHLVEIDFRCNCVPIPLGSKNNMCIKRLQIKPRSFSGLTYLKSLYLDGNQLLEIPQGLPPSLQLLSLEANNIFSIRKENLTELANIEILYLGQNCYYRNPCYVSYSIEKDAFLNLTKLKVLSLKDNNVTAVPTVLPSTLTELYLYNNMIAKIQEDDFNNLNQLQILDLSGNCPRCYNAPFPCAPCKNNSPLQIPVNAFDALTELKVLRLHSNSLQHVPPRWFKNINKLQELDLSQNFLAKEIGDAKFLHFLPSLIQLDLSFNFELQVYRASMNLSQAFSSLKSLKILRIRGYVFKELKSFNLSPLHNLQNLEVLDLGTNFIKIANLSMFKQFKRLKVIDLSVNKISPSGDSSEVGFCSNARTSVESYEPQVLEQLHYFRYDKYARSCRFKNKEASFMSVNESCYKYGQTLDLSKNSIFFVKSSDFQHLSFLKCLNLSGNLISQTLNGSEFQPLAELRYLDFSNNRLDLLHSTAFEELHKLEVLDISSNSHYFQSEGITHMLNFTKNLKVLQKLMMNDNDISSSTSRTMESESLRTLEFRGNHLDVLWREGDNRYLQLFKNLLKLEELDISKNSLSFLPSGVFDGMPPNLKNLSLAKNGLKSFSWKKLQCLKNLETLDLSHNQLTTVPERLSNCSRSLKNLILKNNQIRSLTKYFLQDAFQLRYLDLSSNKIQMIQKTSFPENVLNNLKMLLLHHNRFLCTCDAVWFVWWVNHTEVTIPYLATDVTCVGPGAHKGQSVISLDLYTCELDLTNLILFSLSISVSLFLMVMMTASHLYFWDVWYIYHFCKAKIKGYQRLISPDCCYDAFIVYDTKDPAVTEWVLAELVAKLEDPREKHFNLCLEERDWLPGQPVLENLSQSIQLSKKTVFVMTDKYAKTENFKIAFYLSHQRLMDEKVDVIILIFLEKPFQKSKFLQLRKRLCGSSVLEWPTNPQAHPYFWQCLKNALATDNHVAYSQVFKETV
Test: HEK-TLR7 NF-κB-luciferase reporter, R848 stimulation
Type: cell-based
Settings: for TLR7 100 nM (averaged NF-κB-Luciferase level relative to R848 condition): ASO 100 nM; for TLR7 100 nM (averaged NF-κB-Luciferase level relative to R848 condition) / TLR7 500 nM (averaged NF-κB-Luciferase level relative to R848 condition): relative to R848 only, given as fraction; for TLR7 500 nM (averaged NF-κB-Luciferase level relative to R848 condition): ASO 500 nM; for TLR7 400 nM: 3mer 2'OMe ASO at 400 nM; for TLR7 400 nM / TLR7 2 uM / inhibition of TLR7 by 3-mer 2′OMe oligos (in words) / IC50: HEK-TLR7; for TLR7 400 nM / TLR7 2 uM: value relative to Ligand only = 1.000, NT = 0.000; for TLR7 2 uM: 3mer 2'OMe ASO at 2 uM; for inhibition of TLR7 by 3-mer 2′OMe oligos (in words): 400 nM and 2 μM 3-mer, ~30 min, R848 1 μg/ml; for IC50: oligo ~30-50 min before 1 μg/ml R848 overnight, read-out: IC50 (R848 sensing by TLR7)

GGTTACGGCTCAGTAT (antisense; LNA-modified, pattern not given here) [CAMSAP1-4295 LNA KL]
TLR7 100 nM (averaged NF-κB-Luciferase level relative to R848 condition): 0.438 | TLR7 500 nM (averaged NF-κB-Luciferase level relative to R848 condition): 0.140

UUU (mU*mU*mU)
TLR7 400 nM: 0.861 | TLR7 2 uM: 1.084

dG*dC*dG [GCG]
TLR7 400 nM: 1.185 | TLR7 2 uM: 0.627

UUC (mU*mU*mC)
TLR7 400 nM: 0.536 | TLR7 2 uM: 0.642

GCCATGCTGGCTCGGA (antisense; LNA-modified, pattern not given here) [CAMSAP1-2584 LNA V1]
TLR7 100 nM (averaged NF-κB-Luciferase level relative to R848 condition): 0.638 | TLR7 500 nM (averaged NF-κB-Luciferase level relative to R848 condition): 0.175

ACACTTCGTGGGGTCC (antisense; LNA-modified, pattern not given here) [HPRT LNA-665 V1]
TLR7 100 nM (averaged NF-κB-Luciferase level relative to R848 condition): 0.548 | TLR7 500 nM (averaged NF-κB-Luciferase level relative to R848 condition): 0.086

dC*dC*dG (CCG; listed as DNA, chemistry not fully specified)
TLR7 400 nM: 1.227 | TLR7 2 uM: 1.006

GTTCAGTCCTGTCCAT (antisense; LNA-modified, pattern not given here) [HPRT LNA-292 V1]
TLR7 100 nM (averaged NF-κB-Luciferase level relative to R848 condition): 0.456 | TLR7 500 nM (averaged NF-κB-Luciferase level relative to R848 condition): 0.114

mGmUmU (mG*mU*mU) [GUU, 3-mer 2′OMe PS oligo]
TLR7 400 nM: 0.781 | TLR7 2 uM: 0.119 | inhibition of TLR7 by 3-mer 2′OMe oligos (in words): inhibiting TLR7

CCATCCATGAGGTCCT (antisense; LNA-modified, pattern not given here) [CTNN2B-2545 LNA V1]
TLR7 100 nM (averaged NF-κB-Luciferase level relative to R848 condition): 0.992 | TLR7 500 nM (averaged NF-κB-Luciferase level relative to R848 condition): 0.644

UCC (mU*mC*mC)
TLR7 400 nM: 1.166 | TLR7 2 uM: 0.958

mGmUmA (GUA; all 2'-O-methyl, backbone not given here; further chemistry not fully specified) [shortMut1-3b]
TLR7 400 nM: 0.702 | TLR7 2 uM: 0.239 | inhibition of TLR7 by 3-mer 2′OMe oligos (in words): inhibiting TLR7

CUG (mC*mU*mG)
TLR7 400 nM: 1.405 | TLR7 2 uM: 0.804

GCCATCCACTTGATAG (antisense; LNA-modified, pattern not given here) [EGFR-2874 LNA V1]
TLR7 100 nM (averaged NF-κB-Luciferase level relative to R848 condition): 0.671 | TLR7 500 nM (averaged NF-κB-Luciferase level relative to R848 condition): 0.123

GTCCCCTGTTGACTGG (antisense; LNA-modified, pattern not given here) [HPRT LNA-489 KL]
TLR7 100 nM (averaged NF-κB-Luciferase level relative to R848 condition): 0.557 | TLR7 500 nM (averaged NF-κB-Luciferase level relative to R848 condition): 0.123

GCCATGTTTCTTCTTG (antisense; LNA-modified, pattern not given here) [MB21D1-1248 LNA KL]
TLR7 100 nM (averaged NF-κB-Luciferase level relative to R848 condition): 0.816 | TLR7 500 nM (averaged NF-κB-Luciferase level relative to R848 condition): 0.021

CAU (mC*mA*mU)
TLR7 400 nM: 1.288 | TLR7 2 uM: 0.995

TTCGTGGGGTCCTTTT (antisense; LNA-modified, pattern not given here) [HPRT LNA-661 V1]
TLR7 100 nM (averaged NF-κB-Luciferase level relative to R848 condition): 0.487 | TLR7 500 nM (averaged NF-κB-Luciferase level relative to R848 condition): 0.178

mGmUmG (mG*mU*mG) [GUG, 3-mer 2′OMe PS oligo]
TLR7 400 nM: 0.449 | TLR7 2 uM: 0.072 | inhibition of TLR7 by 3-mer 2′OMe oligos (in words): inhibiting TLR7

dA*dA*dG (DNA AAG; listed as DNA, chemistry not fully specified)
TLR7 400 nM: 1.247 | TLR7 2 uM: 0.876

dA*dG*dA (DNA AGA; listed as DNA, chemistry not fully specified)
TLR7 400 nM: 1.219 | TLR7 2 uM: 0.795

mAmUmC (mA*mU*mC) [AUC, 3-mer 2′OMe PS oligo]
TLR7 400 nM: 0.950 | TLR7 2 uM: 0.430 | inhibition of TLR7 by 3-mer 2′OMe oligos (in words): inhibiting TLR7

T*T*A* G*G*G* T*T*A* G*G*G* T*T*A* G*G*G* T*T*A* G*G*G [A151, reference compound]
IC50: 0.132 µM

dC*dC*dA (CCA; listed as DNA, chemistry not fully specified)
TLR7 400 nM: 1.270 | TLR7 2 uM: 0.780

CUA (mC*mU*mA)
TLR7 400 nM: 1.388 | TLR7 2 uM: 0.953

AUA (antisense mA*mU*mA)
TLR7 400 nM: 1.171 | TLR7 2 uM: 0.905

dA*dA*dA (DNA AAA; listed as DNA, chemistry not fully specified)
TLR7 400 nM: 1.352 | TLR7 2 uM: 0.867

UGU (mU*mG*mU)
TLR7 400 nM: 1.108 | TLR7 2 uM: 0.984

GCU (mG*mC*mU)
TLR7 400 nM: 1.339 | TLR7 2 uM: 0.852

AUG (mA*mU*mG)
TLR7 400 nM: 0.987 | TLR7 2 uM: 0.602

GCAGGCTCAGTGATGT (antisense; LNA-modified, pattern not given here) [CTNN2B-1642 LNA V1]
TLR7 100 nM (averaged NF-κB-Luciferase level relative to R848 condition): 0.676 | TLR7 500 nM (averaged NF-κB-Luciferase level relative to R848 condition): 0.189

mG*mC*mG*mG*mU*A*T*C*C*A*T*G*T*C*C*mC*mA*mG*mG*mC (mG*mC*mG*mG*mU*dA*dT*dC*dC*dA*dT*dG*dT*dC*dC*mC*mA*mG*mG*mC; antisense) [C2-Mut1]
IC50: 0.044 µM

UAU (mU*mA*mU)
TLR7 400 nM: 1.086 | TLR7 2 uM: 0.935

AGU (antisense mA*mG*mU)
TLR7 400 nM: 1.025 | TLR7 2 uM: 0.952

mUmGmG (mU*mG*mG) [UGG, 3-mer 2′OMe PS oligo]
TLR7 400 nM: 1.029 | TLR7 2 uM: 0.989

TGATGGCCTCCCATCT (antisense; LNA-modified, pattern not given here) [HPRT LNA-332 V1]
TLR7 100 nM (averaged NF-κB-Luciferase level relative to R848 condition): 0.657 | TLR7 500 nM (averaged NF-κB-Luciferase level relative to R848 condition): 0.153

TCGTAGTTGCTTCCTA (antisense; LNA-modified, pattern not given here) [MB21D1-1181 LNA KL]
TLR7 100 nM (averaged NF-κB-Luciferase level relative to R848 condition): 0.380 | TLR7 500 nM (averaged NF-κB-Luciferase level relative to R848 condition): 0.198

dA*dA*dC (DNA AAC; listed as DNA, chemistry not fully specified)
TLR7 400 nM: 1.019 | TLR7 2 uM: 0.770

AUU (mA*mU*mU)
TLR7 400 nM: 1.221 | TLR7 2 uM: 0.700

TCCAACACTTCGTGGG (antisense; LNA-modified, pattern not given here) [HPRT LNA-669 V1]
TLR7 100 nM (averaged NF-κB-Luciferase level relative to R848 condition): 0.318 | TLR7 500 nM (averaged NF-κB-Luciferase level relative to R848 condition): 0.249

mCmUmU (antisense mC*mU*mU) [660-3]
TLR7 400 nM: 1.277 | TLR7 2 uM: 0.913

UGC (mU*mG*mC)
TLR7 400 nM: 1.057 | TLR7 2 uM: 0.782

dC*dA*dC (CAC; listed as RNA, chemistry not fully specified)
TLR7 400 nM: 1.330 | TLR7 2 uM: 0.932

UUA (mU*mU*mA)
TLR7 400 nM: 0.997 | TLR7 2 uM: 1.042

CGU (mC*mG*mU)
TLR7 400 nM: 1.372 | TLR7 2 uM: 0.963

TGTGATGGCCTCCCAT (antisense; LNA-modified, pattern not given here) [HPRT LNA-334 V1]
TLR7 100 nM (averaged NF-κB-Luciferase level relative to R848 condition): 0.315 | TLR7 500 nM (averaged NF-κB-Luciferase level relative to R848 condition): 0.090
